Experimental data as given in ChEMBL document CHEMBL1201862, “PubChem BioAssay data set” (2004).
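Assay format: 96-well plates, 48-hour exposure. GI50 marks 50% less growth.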 Active and inactive are the calls of the source. Cut-off read from the data, not from the text of the source: active = GI50 up to about 1.1 µM and inactive = higher.

Columns and labels:
Assay in all cases: NCI-60 cell line screen, 48 h
A498 = test system: A498
HCT-15 = test system: HCT-15
HL-60 = test system: HL-60
HOP-62 = test system: HOP-62
K562 = test system: K562
KM12 = test system: KM12
LOX IMVI = test system: LOX IMVI
MOLT-4 = test system: MOLT-4
NCI-H460 = test system: NCI-H460
NCI-H522 = test system: NCI-H522
NCI/ADR-RES = test system: NCI/ADR-RES
OVCAR-3 = test system: OVCAR-3
RPMI-8226 = test system: RPMI-8226
SF-268 = test system: SF-268
SF-295 = test system: SF-295
SNB-19 = test system: SNB-19
UACC-62 = test system: UACC-62
SN12C = test system: SN12C
TK-10 = test system: TK-10

Structure (SMILES) | GI50 (A498) | GI50 (HCT-15) | GI50 (HL-60) | GI50 (HOP-62) | GI50 (K562) | GI50 (KM12) | GI50 (LOX IMVI) | GI50 (MOLT-4) | GI50 (NCI-H460) | GI50 (NCI-H522) | GI50 (NCI/ADR-RES) | GI50 (OVCAR-3) | GI50 (RPMI-8226) | GI50 (SF-268) | GI50 (SF-295) | GI50 (SNB-19) | GI50 (UACC-62) | GI50 (SN12C) | GI50 (TK-10)
O=C(Nc1ccccc1F)c1cc2ccc(O)cc2o/c1=N\c1cccc(F)c1 | 18.2 µM (inactive) | 10.2 µM | 5.28 µM (inactive) | 19 µM (inactive) | 4.42 µM (inactive) | 12.6 µM (inactive) | 9.89 µM (inactive) | 4.41 µM (inactive) | 6.35 µM (inactive) | 2.37 µM (inactive) | 12.8 µM (inactive) | 11.5 µM (inactive) | 3.24 µM (inactive) | 19.2 µM (inactive) | 4.3 µM (inactive) | 15.9 µM (inactive) | 11.8 µM (inactive) | – | –
O=C1CC2(CCC(O)(c3ccc(Cl)cc3)C(C(=O)c3ccc(Cl)cc3)C2)C(=O)c2ccccc2N1 (configuration not stated) | 17.3 µM (inactive) | > 42.7 µM | 11 µM (inactive) | 3.35 µM (inactive) | 3.28 µM (inactive) | > 100 µM (inactive) | 11.7 µM (inactive) | 2.12 µM (inactive) | 3.33 µM (inactive) | 11.7 µM (inactive) | 11.6 µM (inactive) | > 100 µM (inactive) | 18.6 µM (inactive) | 3.1 µM (inactive) | 6.47 µM (inactive) | 2.26 µM (inactive) | 14.8 µM (inactive) | 5.68 µM (inactive) | 9.86 µM (inactive)
NC1=C(N2CCCCC2)C(=O)NC2=N/C(=C\c3ccccc3)C(=O)N21 | > 100 µM (inactive) | > 100 µM | 32 µM (inactive) | – | 57.5 µM (inactive) | > 100 µM (inactive) | > 100 µM (inactive) | 62.1 µM (inactive) | > 100 µM (inactive) | 63.2 µM (inactive) | > 100 µM (inactive) | – | > 100 µM (inactive) | > 100 µM (inactive) | > 100 µM (inactive) | > 100 µM (inactive) | – | > 100 µM (inactive) | > 100 µM (inactive)
N=C(N)N/N=C/c1cc(Cl)cc(Cl)c1O | 51.1 µM (inactive) | 26.1 µM | 33.2 µM (inactive) | > 100 µM (inactive) | 48 µM (inactive) | 45.1 µM (inactive) | 51.4 µM (inactive) | 50.4 µM (inactive) | 69.5 µM (inactive) | 56.5 µM (inactive) | 35.5 µM (inactive) | 67.3 µM (inactive) | 57.3 µM (inactive) | 45.9 µM (inactive) | 58.1 µM (inactive) | 94.2 µM (inactive) | 41 µM (inactive) | 49.3 µM (inactive) | 69 µM (inactive)
Fc1cc(C2=Nn3c(COc4ccccc4Cl)nnc3S/C2=C\c2ccc(Cl)cc2)c(Cl)cc1Cl | 14.2 µM (inactive) | 3.72 µM | 4.49 µM (inactive) | 15.8 µM (inactive) | 3.77 µM (inactive) | 3.21 µM (inactive) | 3.92 µM (inactive) | 5.97 µM (inactive) | 3.38 µM (inactive) | 5.5 µM (inactive) | 4.24 µM (inactive) | 17.1 µM (inactive) | 3.08 µM (inactive) | 2.83 µM (inactive) | 4.28 µM (inactive) | – | – | – | 11.6 µM (inactive)
CN(C)CCCN1C(=S)N(CCCN(C)C)c2c3cc(O)ccc3nc3c([N+](=O)[O-])ccc1c23 | 0.839 µM (active) | 1.87 µM | 3.09 µM (inactive) | 2.61 µM (inactive) | 2.14 µM (inactive) | 2.7 µM (inactive) | 1.26 µM (inactive) | 0.0953 µM (active) | 0.34 µM (active) | 1.32 µM (inactive) | 6.07 µM (inactive) | 1.68 µM (inactive) | 4.46 µM (inactive) | 1.53 µM (inactive) | 3.37 µM (inactive) | 2.06 µM (inactive) | 5.13 µM (inactive) | 2.65 µM (inactive) | 11.5 µM (inactive)
COC1C(O)=C2C(=O)OC(C)(O)/C=C/C=C\C=C/C=C/C(c3ccccc3)NC(=O)/C=C/C=C/C=C/C=C/C2(C)C1O (configuration not stated) | 0.0137 µM (active) | < 0.001 µM | 0.00348 µM (active) | 0.0121 µM (active) | 0.248 µM (active) | 0.00679 µM (active) | 0.00838 µM (active) | 0.0102 µM (active) | < 0.001 µM (active) | < 0.001 µM (active) | 0.00861 µM (active) | 0.0445 µM (active) | 0.0111 µM (active) | 0.0171 µM (active) | 0.0111 µM (active) | 0.0258 µM (active) | 0.114 µM (active) | 0.0142 µM (active) | 0.00871 µM (active)
CC1(C)C2CCC3=C(CCC4(C)C5C[C@](C)(C(=O)O)CC[C@]5(C)CC[C@]34C)[C@@]2(C)CC[C@@H]1O (some centres not stated) | 26.5 µM (inactive) | 16.5 µM | 18.1 µM (inactive) | 17 µM (inactive) | 16.6 µM (inactive) | 15.4 µM (inactive) | 14.8 µM (inactive) | 15.8 µM (inactive) | 15.2 µM (inactive) | 20 µM (inactive) | 17.9 µM (inactive) | 15.9 µM (inactive) | 20.9 µM (inactive) | 31.2 µM (inactive) | – | > 10 µM (inactive) | 19.3 µM (inactive) | – | 17.8 µM (inactive)
